The values that follow come from patent US20250320184A1 (SIRONAX LTD., priority 2022, published 2025).

In this assay the target is T1, SARM1 (50-724) (Homo sapiens, UniProt Q6SZW1).
T1 sequence (Q6SZW1 50-724): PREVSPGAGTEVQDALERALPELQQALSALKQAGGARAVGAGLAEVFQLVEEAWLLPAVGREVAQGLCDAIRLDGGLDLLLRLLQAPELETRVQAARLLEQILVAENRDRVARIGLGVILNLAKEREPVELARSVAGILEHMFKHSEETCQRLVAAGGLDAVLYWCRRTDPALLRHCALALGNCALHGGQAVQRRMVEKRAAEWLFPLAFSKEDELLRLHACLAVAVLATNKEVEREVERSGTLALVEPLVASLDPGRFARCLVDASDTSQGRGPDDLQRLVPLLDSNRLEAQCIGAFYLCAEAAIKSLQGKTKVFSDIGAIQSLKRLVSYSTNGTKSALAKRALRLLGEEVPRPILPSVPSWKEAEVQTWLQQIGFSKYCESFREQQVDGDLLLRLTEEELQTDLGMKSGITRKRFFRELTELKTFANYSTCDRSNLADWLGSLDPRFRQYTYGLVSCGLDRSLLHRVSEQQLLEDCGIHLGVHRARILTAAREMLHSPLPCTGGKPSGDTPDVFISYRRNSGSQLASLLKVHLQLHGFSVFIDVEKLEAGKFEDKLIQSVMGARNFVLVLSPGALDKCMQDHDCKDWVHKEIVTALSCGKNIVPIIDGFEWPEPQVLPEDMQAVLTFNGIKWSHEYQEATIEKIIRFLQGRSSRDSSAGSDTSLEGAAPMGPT
The experiment in a line: biochemical.
Procedure: An enzymatic assay was performed in a 384-well plate using Dulbecco's phosphate-buffered saline (PBS) as the reaction buffer. […] The reaction was initiated by adding a mixture of 200 μM nicotinamide mononucleotide (NMN) as activator and 100 μM NAD^+ as substrate. After 1 h of incubation at room temperature, the reaction was terminated with 10 times volume of 70% acetonitrile, then centrifuged at 3800 rpm for 10 min.
In the case of `CC1(C)C(=O)N(CC(N)=O)c2cc(NS(=O)(=O)c3cccc(Cl)c3Cl)ccc21` [Compound 255, 2-[6-[(2,3-dichlorophenyl)sulfonylamino]-3,3-dimethyl-2-oxo-indolin-1-yl]acetamide], the IC50 was less than 100 nM.
In turn, `CC1(C)CC(=O)c2cc(NS(=O)(=O)c3cccc(Cl)c3Cl)ccc21` [Compound 264, 2,3-dichloro-N-(1,1-dimethyl-3-oxo-2,3-dihydro-1H-inden-5-yl)benzenesulfonamide] registered an IC50 of less than 100 nM.
`CC1(C)CNC(=O)c2cc(NS(=O)(=O)c3cccc(Cl)c3Cl)ccc21` [Compound 265, 2,3-dichloro-N-(4,4-dimethyl-1-oxo-1,2,3,4-tetrahydroisoquinolin-7-yl)benzenesulfonamide] showed an IC50 of less than 100 nM.
`CC1(C)Cc2ccc(NS(=O)(=O)c3cccc(Cl)c3Cl)cc2NC1=O` [Compound 268, 2,3-dichloro-N-(3,3-dimethyl-2-oxo-1,4-dihydroquinolin-7-yl)benzenesulfonamide] showed an IC50 of 100 to 500 nM.
For `CC1(C)C(=O)N(CCCO)c2cc(NS(=O)(=O)c3cccc(Cl)c3Cl)ccc21` [Compound 273], the IC50 was less than 100 nM.
For `CC1(C)C(=O)N(CCC(N)=O)c2cc(NS(=O)(=O)c3cccc(Cl)c3Cl)ccc21` [Compound 279, 3-(6-((2,3-dichlorophenyl)sulfonamido)-3,3-dimethyl-2-oxoindolin-1-yl)propanamide], the IC50 is less than 100 nM.
Compound `CC1(C)C(=O)N(CCCC(N)=O)c2cc(NS(=O)(=O)c3cccc(Cl)c3Cl)ccc21` [Compound 280, 4-(6-((2,3-dichlorophenyl)sulfonamido)-3,3-dimethyl-2-oxoindolin-1-yl)butanamide] had an IC50 of less than 100 nM.
Under `CC1(C)CN(C(=O)c2ccccn2)c2cc(NS(=O)(=O)c3cccc(Cl)c3Cl)ccc21` [Compound 281, 2,3-dichloro-N-(3,3-dimethyl-1-picolinoylindolin-6-yl)benzenesulfonamide] stands less than 100 nM; under `CC1(C)CN(C(=O)C2CCOCC2)c2cc(NS(=O)(=O)c3cccc(Cl)c3Cl)ccc21` [Compound 284, 2,3-dichloro-N-[3,3-dimethyl-1-(tetrahydropyran-4-carbonyl)indolin-6-yl]benzenesulfonamide], less than 100 nM.
Take `CC1(C)CN(C(=O)c2cccnc2)c2cc(NS(=O)(=O)c3cccc(Cl)c3Cl)ccc21` [Compound 285, 2,3-dichloro-N-(3,3-dimethyl-1-nicotinoylindolin-6-yl)benzenesulfonamide]: the IC50 was less than 100 nM.
Compound `CC(Nc1ccc2c(c1)c(N)nn2C)c1nc(Cl)c(Cl)s1` (stereo not shown) [Compound 288, N5-(1-(4,5-dichlorothiazol-2-yl)ethyl)-1-methyl-1H-indazole-3,5-diamine] gave an IC50 of less than 100 nM.
Under `CC1(C)c2ccc(NS(=O)(=O)c3cccc(Cl)c3Cl)cc2C(=O)N1CC(N)=O` [Compound 289, 2-(5-((2,3-dichlorophenyl)sulfonamido)-1,1-dimethyl-3-oxoisoindolin-2-yl)acetamide] stands less than 100 nM; under `Cn1ccc(C(=O)N2CC(C)(C)c3ccc(NS(=O)(=O)c4cccc(Cl)c4Cl)cc32)n1` [Compound 295, 2,3-dichloro-N-(3,3-dimethyl-1-(1-methyl-1H-pyrazole-3-carbonyl)indolin-6-yl)benzenesulfonamide], less than 100 nM; under `CC1(C)CN(C(=O)CC(N)=O)c2cc(NS(=O)(=O)c3cccc(Cl)c3Cl)ccc21` [Compound 299, 3-(6-((2,3-dichlorophenyl)sulfonamido)-3,3-dimethylindolin-1-yl)-3-oxopropanamide], less than 100 nM.
Under `CC1(C)c2ccc(NS(=O)(=O)c3cccc(Cl)c3Cl)cc2C(=O)N1CCO` [Compound 303] stands 100 to 500 nM; under `NC(=O)Cn1ccc2ccc(NS(=O)(=O)c3cccc(Cl)c3Cl)cc2c1=O` [Compound 306, 2-(7-((2,3-dichlorophenyl)sulfonamido)-1-oxoisoquinolin-2(1H)-yl)acetamide], less than 100 nM.
